Test results as given in patent US6180385A (priority 1996, dated 2001).

Target: Lb proteinase (Foot-and-mouth disease virus serotype O, UniProt P03305)
Sequence (P03305 29-201 limits assumed): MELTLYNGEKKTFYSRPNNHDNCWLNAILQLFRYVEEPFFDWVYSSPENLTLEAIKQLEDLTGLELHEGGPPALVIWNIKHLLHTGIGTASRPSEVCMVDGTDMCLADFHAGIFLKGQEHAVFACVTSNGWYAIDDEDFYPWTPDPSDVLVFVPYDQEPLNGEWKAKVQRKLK

## AKVQRKLKGAGQSSPA [LVP4-1]
  FMDV Lb cleavage site on the peptide (* indicates cleavage site): K*G
  cleavage of peptide in the absence of SDS (controls): complete cleavage
  peptide cleaved by Lb (qualitative): cleaved
Lb proteinase, 4 min, 100 µM, pH 8
  cleavage of peptide by Lb after 4 min: more than 80%
Lb proteinase, 8 min, 100 µM, pH 8
  cleavage of peptide by Lb after 8 min: about 90%
